{"source": "patent US20220096515A1", "about": "“Methods and Formulations for Preventing Neurological or Psychiatric Disorders” (Huntington Medical Research Institutes, priority 2020, published 2022)", "key": {"[1]": {"tested_on": "Gabrb3^ECKO telencephalon", "test": "Prenatal NAD+ treatment (E12-E17), histology/IHC of E18 telencephalon", "format": "in vivo, mouse", "description": "Animals: Timed pregnant CD1 mice were purchased from Charles River laboratories, MA. Colonies of GAD65-GFP mice were maintained in our institutional animal facility. Tie2-cre mice and Gabrb3 floxed (Gabrb3^fl/fl) mice were obtained from Jackson Labs. The Tie2-cre transgene is known for uniform expression of cre-recombinase in endothelial cells during embryogenesis and adulthood. To selectively delete Gabrb3 in endothelial cells, Tie2-cre transgenic mice (males) were crossed to Gabrb3^fl/fl mice (females) to generate Tie2-cre; Gabrb3^fl/+ mice (males). These were further crossed with Gabrb3^fl/fl mice (females) to obtain the Gabrb3 conditional knock-outs (Tie2-cre; Gabrb3^fl/fl mice). The day of plug discovery was designated embryonic day 0 (E0). Animal experiments were in full compliance with the NIH Guide for Care and Use of Laboratory Animals and were approved by the HMRI and McLean Institutional Animal Care Committees.\nHistology, immunohistochemistry, and microscopic analysis: Paraffin immunohistochemistry (IHC) was performed on embryonic brains only while frozen section IHC was used on both embryonic and adult brains. Briefly, for paraffin IHC-E18 brains were fixed in zinc fixative (BD Biosciences PharMingen) for 24 h and processed for paraffin histology. Histological stainings with hematoxylin (Vector Laboratories) and eosin (Sigma) were performed on 8 μm coronal sections. Lectin histochemistry (with biotinylated isolectin B4, 1:50, Sigma) as well as IHC was performed on 20 μm sections. Primary antibodies used for IHC were as follows: anti-PHH3 (1:200, Millipore) and anti-NKX2.1, (1:50; Sigma) followed by secondary detection with AlexaFluor conjugates (Invitrogen). DAPI (Vector Laboratories) was used to label nuclei. For frozen section IHC, E18 and P90 brains were removed, fixed in 4% PFA for 24 hours, cryo-protected in sucrose gradient, embedded into OCT medium for frozen blocks; sectioned at 40 μm on a cryostat and immunostained with anti-GABA (1:80, Sigma) and anti -PROX1 (1:80, Millipore) antibodies. Twenty sections from each brain were used for IHC and histology experiments. Uniform penetration of antibodies or stains throughout the section was ascertained and quality of the staining in each digital section was examined. […] All low and high-magnification images were obtained from an FSX100 microscope (Olympus).\nMorphometry: A stereological point grid was superimposed on digital images of biotinylated isolectin-B4+ vessels using ImageJ software. The ratio between points falling on blood vessels and on brain tissue was calculated for each section, and average values were obtained.\nThis vascular deficit in the embryonic telencephalon persisted in the adult cerebral cortex with larger vessel diameters likely correlating with increased perfusion and indicative of functional changes in blood flow in Gabrb3^ECKO vessels. A summary of the embryonic and postnatal phenotype highlights (FIG. 3A) the importance of the endothelial GABA pathway for telencephalic angiogenesis, and for maintaining neuro-vascular interactions. Therefore, given its pro-angiogenic properties (FIGS. 2A-2J), NAD^+ treatment during the prenatal period was tested for its ability to improve angiogenesis in the Gabrb3^ECKO telencephalon. The periventricular ventral-dorsal angiogenesis gradient is established by E11, after which neuronal cells originating from ventricular zones navigate along radial and tangential courses, to adopt final laminar positions and integrate into specific brain circuits. Therefore, the approach was to target only the critical window of mouse prenatal brain development: E12 to E17. In the Gabrb3^ECKO telencephalon, the periventricular vessel gradient is formed normally at E11, but reductions in vascular density and abnormal vascular profiles are observed from E13 onward. […]"}, "[2]": {"tested_on": "neuronal cells isolated from the E15 CD1 forebrain", "test": "Neuronal cell proliferation and long-distance migration in vitro", "format": "cell-based, mouse", "method": "Isolation and primary culture of neuronal cells: Primary culture of embryonic GABAergic neurons from CD1 telencephalon or after the saline or NAD+ treatment paradigms were performed using established methods. Briefly, embryonic brains were extracted under a stereo microscope and placed into cold PBS. After removal of the pial membrane, the telencephalon was dissected from each embryonic brain. The telencephalon was minced into 1-2 mm slices in cold PBS. Minced telencephalon was treated with 0.1× trypsin/EDTA at 37° C. for 5 min. Trypsin treatment was stopped by adding FBS-DMEM media and DNase I consecutively. Dissociated cells were filtered with a 40 μm cell strainer and finally filtered cells were cultured in poly-D-lysine coated culture dishes with Neurobasal medium (Life technologies) with 1× B-27 (Life technologies) and 1× Glutamax (Life technologies).\nNeuronal migration assay: In preparation for cell migration assays, one well square culture inserts (ibidi GmbH) were placed in the center of a poly-Ornithine/Laminin coated 35 mm dish, to make a small rectangular patch that is labeled outside the dish. Embryonic neurons prepared from the saline and NAD+ treated groups were seeded in the inserts in Neurobasal medium, supplemented with 1× B-27 and 1× Glutamax. After the cells had attached, the inserts were removed to initiate cell migration in all 4 quadrants of the dish. After 24 hours, cells were fixed and labeled with anti-β-Tubulin antibody (1:2000, Biolegend). Neuronal migration was assessed by measuring the distance between the final positions of cells from the border of the rectangular patch was outlined on the first day, using ImageJ software.\nIn one experiment, periventricular endothelial cells were isolated from E15 wildtype (CD1) forebrain and tested the effect of NAD^+ addition in vitro. Exogenous addition of 100 μM NAD^+ was able to initiate significant endothelial cell proliferation within 2 days of culture and a 35 mm culture dish was confluent within 4-6 days (FIGS. 2A-2D). […]"}}, "data": [{"smiles": "NC(=O)c1ccc[n+]([C@@H]2O[C@H](COP(=O)([O-])OP(=O)(O)OC[C@H]3O[C@@H](n4cnc5c(N)ncnc54)[C@H](O)[C@@H]3O)[C@@H](O)[C@H]2O)c1", "note": "[NAD^+]", "values": [{"measurement": "periventricular vessel densities", "setting": "[1]; 10 mg in 100 μl saline i.p. daily to pregnant dams E12-E17, E18, vs saline-treated Gabrb3^ECKO", "result": "significant improvement in periventricular vessel densities"}, {"measurement": "NKX2.1 expression in MGE", "setting": "[1]; E18", "result": "significantly enriched in the MGE"}, {"measurement": "PROX1 expression", "setting": "[1]; E18", "result": "significantly increased"}, {"measurement": "number of PHH3^+ cells at VZ/SVZ surface of ventral telencephalon", "setting": "[1]; E18", "result": "significantly increased the number of PHH3^+ cells"}, {"measurement": "profile of GABAergic neurons (GABA immunoreactivity)", "setting": "[1]; E18", "result": "restored"}, {"measurement": "vascular patterns around lateral ventricle / ganglionic eminence", "setting": "[1]; E18, 20 μm sections", "result": "uniform vascular patterns were restored"}, {"measurement": "cell cluster in MGE (H&E)", "setting": "[1]; NAD^+-treated Gabrb3^ECKO mice, E18", "result": "a cluster of cells were observed in the medial ganglionic eminence (MGE)"}, {"measurement": "overall morphology of telencephalon (H&E)", "setting": "[1]; treatment E12 to E17, E18", "result": "significantly improved the overall morphology"}, {"measurement": "neuronal cell proliferation", "setting": "[2]; NAD^+ addition", "result": "an increase in cell proliferation"}, {"measurement": "long-distance migration of neuronal cells", "setting": "[2]; NAD^+ addition, neurons alone", "result": "increased long-distance migration of neuronal cells"}, {"measurement": "long-distance migration of neuronal cells", "setting": "[2]; neurons seeded on periventricular endothelial cells", "result": "more robust"}]}]}
